Data: US6414031B1, “Bisoximether derivatives, methods and intermediate products for the production thereof, and their use for combating fungicidal pests and animal pests” (BASF Aktiengesellschaft, priority 1998, dated 2002)

Assays:
Type in all cases: in vivo
Puccinia recondita = assay: Curative activity against Puccinia recondita on wheat (leaf rust); settings: 1 ppm, wheat sprayed 1 day after infection, assessed after 7 days, untreated 90%
Source text: (§1) The active ingredients, separately or together, were formulated as a 10% emulsion in a mixture of 70% by weight of […], 20% by weight of Nekanil® LN (Lutensol® AP6, wetter having emulsifying and dispersant action, based on ethoxylated alkylphenols) and 10% by weight of Wettol® EM (non-ionic emulsifier based on ethoxylated castor oil) and diluted with water to give the desired concentration.
Leaves of wheat seedling cv. “Kanzler” grown in pots were dusted with leaf rust spores (Puccinia recondita). The pots were then placed for 24 hours into a chamber with high atmospheric humidity (90 to 95%) and 20 to 22° C. During this time, the spores germinated and the germ tubes penetrated the leaf tissue. Next day, the infected plants were sprayed to runoff with an aqueous active ingredient preparation made with a stock solution consisting of 10% of active ingredient, 63% of cyclohexanone and 27% of emulsifier. After the spray coating had dried on, the test plants were grown in the greenhouse for 7 days at temperatures between 20 and 22° C. and a relative atmospheric humidity of 65 to 70%. The extent of rust development on the leaves was then determined.

Aphis fabae = assay: Action against Aphis fabae, contact action; settings: infested dwarf beans (Vicia faba), mortality after 24 hours
Source text: (§2) The active ingredients were formulated
(§3) a. as a 0.1% strength solution in acetone or
(§4) b. as a 10% emulsion in a mixture of 70% by weight of cyclohexanone, 20% by weight of Nekanil® LN (Lutensol® AP6, wetter having emulsifying and dispersant action, based on ethoxylated alkylphenols) and 10% by weight of Wettol® EM (non-ionic emulsifier based on ethoxylated castor oil)
(§5) and diluted to give the desired concentration, using acetone in the case of a. and water in the case of b.
Severely infested dwarf beans (Vicia faba) in the four-leaf stage were treated with aqueous formulations of active ingredient. The mortality rate was determined after 24 hours.

Nephotettix cincticeps [1] = assay: Action against Nephotettix cincticeps, contact action (filter disks); settings: treated filter disks, adult leafhoppers, mortality after 24 hours
Source text: as §2, §3, §4, §5
Filter disks (Ø 9 cm) were treated with 1 ml of aqueous formulations of the active ingredient and subsequently populated with five adult leafhoppers. The mortality was determined after 24 hours.

Nephotettix cincticeps [2] = assay: Action against Nephotettix cincticeps (crop spray experiment); settings: sprayed rice plants, adult leafhoppers, mortality after 24 hours
Source text: as §2, §3, §4, §5
Rice plants grown in pots (plant height approximately 8 cm) were sprayed to runoff point with aqueous formulations of active ingredients. After drying, the plants were populated with 20 adult leafhoppers. The mortality was determined after 24 hours.

Plasmopara viticola = assay: Activity against Plasmopara viticola on grape leaves (long-term action); settings: 16 ppm, grape leaves inoculated 7 days after spraying; untreated 85%
Source text: as §1
Leaves of grapes cv. “Müller-Thurgaul” in pots were sprayed to runoff with aqueous active ingredient preparations made with a stock solution of 10% active ingredient, 63% cyclohexanone and 27% of emulsifier. In order to be able to assess the long-term action of the substances, the spray coating was allowed to dry off and the plants were then placed in the greenhouse for 7 days. Only then were the leaves inoculated with an aqueous zoospore suspension of Plasmopara viticola. Then, the vines were first placed for 48 hours into a water-vapor-saturated chamber at 24° C. and then for 5 days in the greenhouse at temperatures between 20 and 30° C. After this time, the plants were returned to a humid chamber for 16 hours to accelerate sporangiophore eruption for 16 hours. The extent of the disease development on the undersides of the leaves was then determined visually.

SMILES	disease level (extent of rust development on the leaves) (Puccinia recondita) [%]	limit concentration (lowest concentration with 80 to 100% inhibition or mortality) (Aphis fabae) [ppm]	limit concentration (lowest concentration with 80 to 100% inhibition or mortality) (Nephotettix cincticeps [1]) [mg]	limit concentration (lowest concentration with 80 to 100% inhibition or mortality) (Nephotettix cincticeps [2]) [ppm]	disease level (undersides of the leaves) (Plasmopara viticola) [%]
COC=C(C(=O)OC)c1ccccc1CON=C(C)C(=NOC)C1CCCCC1 [A]	90	100	0.2	400	
CC=C(C(=O)OC)c1ccccc1CON=C(C)C(=NOC)C1CCCCC1 [B]			0.2	400	
CON=C(C(=O)OC)c1ccccc1CON=C(C)C(=NOC)C1CCCCC1 [C]		100			
COC=C(C(=O)OC)c1ccccc1CON=C(C)C(=NOC)C1CCC(C)CC1 (centres unmarked) [Compound I-3]			0.04		
CC=C(C(=O)OC)c1ccccc1CON=C(C)C(=NOC)C1CCC(C)CC1 (centres unmarked) [Compound I-4]			0.04		
CNC(=O)C(=NOC)c1ccccc1CON=C(C)C(=NOC)C1CCCCC1 [D]	90				60
